Measured values as given in US20040122076A1, “Sulphonamides for the treatment of central nervous system diseases” (priority 2000, published 2004).

Biological target: T1, human recombinant 5-HT6 receptors (Homo sapiens, UniProt P50406)
T1 construct: purchased Receptor Biology, Inc., Beltsville Md; 20705, USA RB-HS6; host or cells: HEK293 cells (membranes)
Assay: Binding to human recombinant 5-HT6 receptors ([3H]-LSD displacement, HEK293 membranes)
Conditions: [3H]-LSD 1 nM, membranes of HEK293 cells, 1 hour at 37° C.; Ki=IC50/(1+L/KD)
Experimental: 1. Binding to Human Recombinant 5-HT6 Receptors
The binding of the compounds according to the invention to human recombinant 5-HT6 receptors can be determined as follows. Membranes of HEK293 cells which express human recombinant 5-HT6 receptors (RB-HS6, Receptor Biology, Inc., Beltsville Md. 20705, USA) were suspended in the ratio 1:40 in ice-cold sample buffer consisting of 50 mM tris HCl, 5 mM MgCl2, 0.5 mM EDTA; 0.1% ascorbic acid and 10 μM pargyline (pH 7.4) and homogenized (Polytron). 100 μl of membrane suspension, 50 μl of [^3H]-LSD (specific activity 75 Ci/mmol, final concentration […]) and 50 μl of test substance solution (8 different concentrations, 10^−5 to 10^−9 M) were incubated for 1 hour at 37° C. and the [^3H]-LSD bound to the receptor was then separated from the free [^3H]-LSD by filtration. The radioactivity retained by the filter was determined by scintillation spectroscopy. All tests were carried out in triplicate determinations. The IC50 values were calculated using the program GraphPadPrism (Hill equation, special: one-site competition). The inhibition constant of the test substance Ki was determined from the IC50 value of the compounds (concentration of the test substance at which 50% of the ligand bound to the receptor is displaced), the dissociation constant KD and the concentration L of [^3H]-LSD (Ki=IC50/(1+L/KD)).

T1 sequence (P50406 whole entry): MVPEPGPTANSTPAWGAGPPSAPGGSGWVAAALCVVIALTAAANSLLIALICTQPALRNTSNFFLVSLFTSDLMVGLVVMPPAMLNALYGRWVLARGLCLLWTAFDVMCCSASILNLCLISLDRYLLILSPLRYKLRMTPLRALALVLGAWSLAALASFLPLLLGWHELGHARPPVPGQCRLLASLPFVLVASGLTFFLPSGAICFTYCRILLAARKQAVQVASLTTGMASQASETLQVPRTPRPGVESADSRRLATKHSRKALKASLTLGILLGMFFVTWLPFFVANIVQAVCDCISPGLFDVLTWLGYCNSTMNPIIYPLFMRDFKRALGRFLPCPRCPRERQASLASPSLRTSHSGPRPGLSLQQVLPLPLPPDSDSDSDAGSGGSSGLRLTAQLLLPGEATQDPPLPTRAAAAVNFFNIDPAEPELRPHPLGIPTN

Ki: 0.012 µM
SMILES: CCn1ccc2ccc(S(=O)(=O)Nc3cccc(NC(=O)C(C)(C)C)c3)cc21 [Example 44]
